From the OPERA property sets (Mansouri et al. 2018)

Row | SMILES | logP
1 | CCCCCCCCCCCCCCCCCC(=O)O | 8.23
2 | O=NN1CC=CCC1 | 1.18
3 | CCCC(=O)c1ccccc1 | 2.77
4 | O=C(c1ccc(-c2ccccc2)cc1)c1ccc2n1CCC2C(=O)O (centres undefined) | 4.27
5 | CNC(=O)NS(=O)(=O)c1ccc(C)cc1 | 0.95
6 | COc1ccc(C2C(=O)c3ccccc3C2=O)cc1 | 2.88
7 | Cc1cccc(C(=O)c2ccc3n2CCC3C(=O)O)c1 (centres undefined) | 3.23
8 | CC(=O)c1nc([N+](=O)[O-])n(CC(C)O)c1C (centres undefined) | 0.37
9 | CO[C@@]1(NC(=O)Cc2cccs2)C(=O)N2C(C(=O)O)=C(COC(N)=O)CS[C@@H]21 | -0.02
10 | CCCCCCCCC(C)(C)c1ccc(C2CCCC(O)C2)c(O)c1 (centres undefined) | 8.16
11 | CCOC(=O)Cn1nc2ccccc2n1 | 1.85
12 | CCC1OC(=O)C(C)C(OC2CC(C)(OC)C(OC=O)C(C)O2)C(C)C(OC2OC(C)CC(N(C)C)C2O)C(C)(O)CC(C)C(=O)C(C)C(O)C1(C)O (centres undefined) | 2.64
13 | Cc1cccc(C)c1NC(=O)CN | 0.41
14 | CCCCC(CCCC)C(=O)O | 3.2
15 | CN(C)c1ccc2ccccc2n1 | 2.81
16 | COCc1cnc(-c2ccc(OCC(O)CNCCc3ccc(OC)c(OC)c3)cc2)[nH]1 (centres undefined) | 1.71
17 | COc1ccc(C(O)(Cn2ccnc2)c2ccc(Br)cc2)cc1 (centres undefined) | 4.02
18 | CC12CCC(=O)C=C1CCC1C3CCC4(CCC(=O)O4)C3(C)CC(O)C12F (centres undefined) | 2.4
19 | CCC(C(=O)OCc1ccc(Cl)cc1)C(COC(=O)c1ccccc1)Cc1cncn1C (centres undefined) | 4.9
20 | Brc1cc2ccccc2nn1 | 1.72

Row | SMILES | logP
21 | Cc1ncc(CO)c(CO)c1O | -0.77
22 | CC(=O)OCC1OC(n2ccc(N)nc2=O)C(OC(C)=O)C1OC(C)=O (centres undefined) | -0.8
23 | CCCCCCC(C)(C)c1cc(O)c2c(c1)OC(C)(C)C1CCC(CO)=CC21 (centres undefined) | 7.83
24 | CCCOc1cc(Cc2cnc(N)nc2N)ccc1OC | 1.88
25 | CCC(C(=O)OCc1ccc(C)cc1)C(COC(=O)c1ccccc1)Cc1cncn1C (centres undefined) | 4.85
26 | O=C(c1ccc(F)cc1F)c1ccc2n1CCC2C(=O)O (centres undefined) | 2.59
27 | CCC1OC(=O)C(C)C(OC2CC(C)(OC)C(OC(C)=O)C(C)O2)C(C)C(OC2OC(C)CC(N(C)C)C2O)C(C)(O)CC(C)C(=O)C(C)C(O)C1C (centres undefined) | 3.23
28 | Cn1c([N+](=O)[O-])cnc1C=Cc1ccncn1 | 0.85
29 | O=[N+]([O-])c1cc(F)ccc1F | 1.86
30 | CCC(C(=O)OCc1ccccc1)C(COC(=O)c1ccccc1)Cc1cncn1C (centres undefined) | 4.37
31 | C=CCC(NC(=O)C(Cc1ccccc1)NS(=O)(=O)N1CCN(C)CC1)C(=O)NC(CC1CCCCC1)C(=O)C(F)(F)C(=O)NCCN1CCOCC1 (centres undefined) | 2.73
32 | COc1cccc2c1C(=O)c1c(O)c3c(c(O)c1C2=O)CC(O)(C(C)=O)CC3OC1CC(N2CCOCC2C#N)C(O)C(C)O1 (centres undefined) | 2.59
33 | C=C1C(=O)OC2C=C(C)C3(O)C=CC(C)(CC(OC(=O)C(=CC)COC(C)=O)C12)O3 (centres undefined) | 1.19
34 | CC(=O)O[C@H]1C[C@H](O[C@H]2[C@@H](O)C[C@H](O[C@H]3[C@@H](O)C[C@H](O[C@H]4CC[C@@]5(C)[C@H](CC[C@@H]6[C@@H]5C[C@@H](O)[C@]5(C)[C@@H](C7=CC(=O)OC7)CC[C@]65O)C4)O[C@@H]3C)O[C@@H]2C)O[C@H](C)[C@H]1O | 1.97
35 | COc1cc(OC)cc(C2C(=O)c3ccccc3C2=O)c1 | 2.86
36 | CCCCCc1cc(OC)c2c(c1)OC(C)(C)C1CC=C(C)CC21 (centres undefined) | 8.06
37 | CNCCCN1c2ccccc2Sc2ccc(Cl)cc21 | 4.94
38 | CC1(C)[C@@H](O[C@H]2O[C@H](C(=O)O)[C@@H](O)[C@H](O)[C@H]2O[C@@H]2O[C@H](C(=O)O)[C@@H](O)[C@H](O)[C@H]2O)CC[C@]2(C)[C@H]3C(=O)C=C4[C@@H]5C[C@@](C)(C(=O)O)CC[C@]5(C)CC[C@@]4(C)[C@]3(C)CC[C@@H]12 | 2.8
39 | CCc1ccc(NC(=O)CN2CCCCC2)cc1 | 3.52
